Series [1] deals with Bid protein in HT-29 cells. The series is described as follows: Western blot, Bid protein. It is filed as cell-based, human. The conditions noted are these: for Bid protein expression up-regulation: 200 μM, 24 h, vs untreated group. The procedure:
Total protein was isolated from HT-29 cells by using lysis buffer. Cells were collected by centrifugation at 1,500 rpm for 5 min. After that, cell pellets were re-suspended with RIPA lysis buffer consisting of 1 mM protease inhibitor cocktail (PIC; Sigma-Aldrich; P8340) and lysed at […] for 1 h. After incubation, the protein was obtained by centrifugation at 13,000 × g for 15 min and kept for − 80 °C until analysis. Also, mitochondrial and cytosolic fractions were obtained by using fraction lysis buffer as described previously[50] with minor modifications. Lysed cells were kept in ice for 10 min and then cells were triturated by a 27 gauge syringe (25 strokes) to become homogeneous followed by centrifugation at 13,000 × g for 30 min. The collected supernatant was the cytosolic fraction. After the pellet was washed with lysis buffer and it was dissolved in lysis buffer for protein quantification. Protein concentration was measured by Pierce BCA protein assay kit (Thermo Scientific Laboratories, Rockford, USA) according to the manufacturer instructions. Equal amounts of proteins from all samples were separated by 10% SDS–polyacrylamide gel electrophoresis (SDS-PAGE) and electrotransferred. Polyvinylidene difluoride (PVDF) membrane was blocked with 5% skimmed milk for 1 h, followed by incubation with primary (Cytochrome-c: sc-13560; Bid: sc-11423; COX-IV: #4850; 1:2000; GAPDH: #3683; 1:10,000) and HRP-conjugated secondary (Got Anti-mouse IgG: 20102; Got anti-rabbit IgG: 20202: 1:10,000) antibodies against specific proteins. The protein signals were detected by Enhanced Chemiluminescence (ECL) detection kit (Amersham Piscataway, NJ, USA). The protein expression levels were analyzed by measuring the intensity of the band from scanned films using Image-J software. GAPDH and COX-IV served as a housekeeping protein to normalize the expression levels.

The next series relates to zebrafish (ABiC) embryos. The series is described as follows: Zebrafish embryo developmental toxicity assay. It is filed as in vivo, zebrafish (Danio rerio). The conditions noted are these: for survival rate of embryos compared with untreated and DMSO treated embryos: 50, 100 and 150 μM, 96 hpf.
For series [2], the system named is Colorectal cancer HT-29 cells. The series is described as follows: MTT cell viability assay, HT-29. It is filed as cell-based. The conditions noted are these: Homo sapiens; for viability at 125 µM: 24 h treatment, read-out: relative percentage viability of HT-29 cells; for IC50: 24 h, MTT, read-out: HT-29 cells inhibitory (IC50) dose. The procedure:
Human colorectal cancer (HT-29) and mouse embryonic fibroblast (3T3) cells were obtained from the American Type Culture Collection Centre (ATCC, VA, USA). Both cells were grown in Dulbecco Modified Eagle's Medium (DMEM, HiMedia, India) supplemented with 10% heat-inactivated fetal bovine serum (FBS), penicillin (50 units/mL), and streptomycin (50 µg/mL) and were cultured at 37 °C, 5% CO2 in a humidified atmosphere.
Cytotoxicity of the identified those DKPs were determined by cell viability study with the MTT (3-(4, 5-dimethylthiazol-2yl)-2, 5-diphenyltetrazolium bromide) reduction assay[49]. Briefly, 1.5 × 10^4 cells/well (HT-29) and 1.7 × 10^4 cells/well (3T3) cells were seeded into 96-well plates. They were incubated for 24 h at 37 °C with 5% CO2 and 95% relative humidity atmosphere. After 24 h, identified DKPs were added different concentrations (12.5 to 200 µM) into culture media in triplicates and re-incubated under the same culture conditions mentioned above. The final concentration of DMSO solution was 0.25% in the cells served as a negative control. Then culture media was removed from the plates, and 100 μL of freshly prepared MTT solution in serum-free medium (5 mg/mL) was added to each well and further incubated for 4 h. After that, 150 μL of DMSO solution was added under dark conditions and kept for 30 min at room temperature. The absorbance of the formazan product was measured at 595 nm in the microplate reader (Imark, Biorad). The percentage viability of the cells was measured by using the formula: Cell viability (%) = [(test/control) × 100)].
Results were expressed as mean ± standard deviation (SD). Data were analyzed one-way analysis of variance (ANOVA), followed by Student’s two-tailed t-test for comparison between two groups and Dunnett’s t-test was used when the data involved three or more groups. A value of p < 0.05 was considered statistically significant. All statistical analyses and inhibitory concentration (IC50) were determined by graph-pad prism statistical software (San Diego, CA, USA).

A further series has as its system HT-29 cells. Nature of the series: Annexin V-FITC/PI double staining, flow cytometry. The conditions noted are these: 24 h; for EAC Q3 early apoptotic cells, fold change / LA/NC Q2 late apoptotic or/and necrotic cells, fold change / Q1 + Q2 total dead cells, fold change / Q1 dead cells, fold change / Q2 + Q3 total apoptotic cells, fold change: vs CTL; for viability at 50 µM / viability at 100 µM / viability at 200 µM: Homo sapiens, HT-29, quadrant plot, read-out: Percentage of viable (Q4) cells. It is filed as cell-based, human. As for the experimental part: The dead, necrotic, and apoptotic cells were analyzed by annexin V/PI double staining method, which was used to detect the externalization of phosphatidylserine (PS). Briefly, cells at the density of 4.5 × 10^4 cells/well were seeded into 6-well plates and treated with or without DKPs for 24 h. Subsequently, both floating and adherent cells were harvested by centrifugation at 1,500 rpm for 5 min, then re-suspended in 300 μL of 1X binding buffer, followed by 3 μL of annexin V-FITC and propidium iodide (PI) (Apoptosis Detection kit, Lead Gen, Taiwan) was added into each sample and incubated for 20 min at room temperature in the dark following the protocol recommended by the manufactures. Cells were analyzed by flow cytometry (FACS Calibur, Becton Dickinson, CA, USA) using WinMDI 2.9 software (La Jolla, CA, USA). The individual populations can be defined using quadrant gates, the number of cells in each quadrant indicated the following: Quadrant-1 (Q1): annexin V^-/PI^+ cells were considered as dead cells; Quadrant-2 (Q2): Annexin V^+/PI^+ cells were considered as late apoptotic and necrotic cells; Quadrant-3 (Q3): Annexin V^+/PI^− cells were considered as early apoptotic cells; Quadrant-4 (Q4): Annexin V^-/PI^- cells were considered as healthy. Data were analyzed using FlowJo V12.1 software (Tree stat, Stanford, CA, USA).
Background: Flow cytometry measures light scatter and fluorescence of single cells or particles in a stream.

Molecules are shown by their SMILES.

In general, IC50 refers to the concentration needed to halve the response being measured. As for `O=C1N[C@@H](Cc2ccccc2)C(=O)N2CCC[C@@H]12` [DKP-3, cyclo (L-Pro-L-Phe)], the “Bid protein expression up-regulation” value in series [1] was 1.76 fold. In the series on zebrafish (ABiC) embryos (lower doses (50 and 150 μM)), the “survival rate of embryos compared with untreated embryos” value is “higher”. Besides, in series [2], the viability at 125 µM came to 34.7 ± 4.03% and the IC50 came out at 85.2 µM. Also, in the series on HT-29 cells (50 μM), the “EAC Q3 early apoptotic cells, fold change” value was determined as 16.5 fold; the “LA/NC Q2 late apoptotic or/and necrotic cells, fold change” value is on record as 10.5 fold; the “Q1 + Q2 total dead cells, fold change” value is on record as 3.3 fold; the “Q1 dead cells, fold change” value is on record as 1.7 fold. For the same compound, in the series with HT-29 cells (50 μM), the “Q2 + Q3 total apoptotic cells, fold change” value is reported as 12.7 fold and the viability at 50 µM was found to be 55.8%. Moreover, in the series on HT-29 cells (100 μM), the “EAC Q3 early apoptotic cells, fold change” value is recorded as 17.4 fold; the “LA/NC Q2 late apoptotic or/and necrotic cells, fold change” value was 14.9 fold; the “Q1 + Q2 total dead cells, fold change” value was determined as 3.8 fold; the “Q1 dead cells, fold change” value was 1.4 fold. Also, in the series on HT-29 cells (100 μM), the “Q2 + Q3 total apoptotic cells, fold change” value came to 15.9 fold and the viability at 100 µM was determined as 50%. Moreover, in the series on HT-29 cells (200 μM), the “EAC Q3 early apoptotic cells, fold change” value is 22.3 fold; the “LA/NC Q2 late apoptotic or/and necrotic cells, fold change” value turned out to be 15.6 fold; the “Q1 + Q2 total dead cells, fold change” value is 3.8 fold; the “Q1 dead cells, fold change” value was found to be 1.3 fold. For the same compound, in the series with HT-29 cells (200 μM), the “Q2 + Q3 total apoptotic cells, fold change” value is recorded as 18.1 fold and the viability at 200 µM came to 45.4%.
Turning to `CC(C)C[C@@H]1NC(=O)[C@@H]2CCCN2C1=O` [DKP-1, cyclo (L-Pro-L-Leu)], in series [1], the “Bid protein expression up-regulation” value is 1.32 fold. The “survival rate of embryos compared with untreated and DMSO treated embryos” value with zebrafish (ABiC) embryos was “no significant decrease”. In series [2], the viability at 125 µM stood at 36.3 ± 5.08% and the IC50 came out at 100 µM. Further, in the series with HT-29 cells (50 μM), the “LA/NC Q2 late apoptotic or/and necrotic cells, fold change” value stood at 2.3 fold; the “Q1 + Q2 total dead cells, fold change” value is 1.7 fold; the “Q1 dead cells, fold change” value stood at 1.5 fold; the “Q2 + Q3 total apoptotic cells, fold change” value stood at 2.3 fold. Also, the viability at 50 µM in the series on HT-29 cells (50 μM) was determined as 83.3%. Besides, in the series on HT-29 cells (100 μM), the “LA/NC Q2 late apoptotic or/and necrotic cells, fold change” value is listed as 2.6 fold; the “Q1 + Q2 total dead cells, fold change” value was 3.0 fold; the “Q1 dead cells, fold change” value is reported as 3.1 fold; the “Q2 + Q3 total apoptotic cells, fold change” value was 3.6 fold. Also, the viability at 100 µM with HT-29 cells (100 μM) came to 69.7%. Besides, in the series with HT-29 cells (200 μM), the “LA/NC Q2 late apoptotic or/and necrotic cells, fold change” value worked out at 9.9 fold; the “Q1 + Q2 total dead cells, fold change” value is 3.3 fold; the “Q1 dead cells, fold change” value turned out to be 1.1 fold; the “Q2 + Q3 total apoptotic cells, fold change” value turned out to be 11.4 fold. The viability at 200 µM with HT-29 cells (200 μM) is 56.3%.
As for `O=C1N[C@@H](Cc2ccc(O)cc2)C(=O)N2CCC[C@@H]12` [DKP-4, cyclo (L-Pro-L-Tyr)], the “Bid protein expression level” value in series [1] (100 μM, vs control and 200 μM) is listed as “increased the expression level of Bid”. The “survival rate of embryos compared with untreated and DMSO treated embryos” value in the series with zebrafish (ABiC) embryos is “no significant decrease”. In series [2], the viability at 125 µM amounted to 42.1 ± 2.94% and the IC50 amounted to 98 µM. In the series on HT-29 cells (50 μM), the “EAC Q3 early apoptotic cells, fold change” value was 20.5 fold; the “LA/NC Q2 late apoptotic or/and necrotic cells, fold change” value is on record as 8.4 fold; the “Q1 + Q2 total dead cells, fold change” value was 3.0 fold; the “Q1 dead cells, fold change” value was determined as 1.5 fold. Further, in the series on HT-29 cells (50 μM), the “Q2 + Q3 total apoptotic cells, fold change” value is recorded as 12.6 fold and the viability at 50 µM came to 57.6%. For the same compound, in the series with HT-29 cells (100 μM), the “EAC Q3 early apoptotic cells, fold change” value is given as 18.4 fold; the “LA/NC Q2 late apoptotic or/and necrotic cells, fold change” value was 14.6 fold; the “Q1 + Q2 total dead cells, fold change” value is on record as 3.9 fold; the “Q1 dead cells, fold change” value came out at 1.0 fold. For the same compound, in the series on HT-29 cells (100 μM), the “Q2 + Q3 total apoptotic cells, fold change” value turned out to be 15.9 fold and the viability at 100 µM is 52%. In the series on HT-29 cells (200 μM), the “EAC Q3 early apoptotic cells, fold change” value was determined as 10.8 fold; the “LA/NC Q2 late apoptotic or/and necrotic cells, fold change” value was found to be 18.0 fold; the “Q1 + Q2 total dead cells, fold change” value is given as 5.5 fold; the “Q1 dead cells, fold change” value was 2.1 fold. Further, in the series on HT-29 cells (200 μM), the “Q2 + Q3 total apoptotic cells, fold change” value is on record as 15.5 fold and the viability at 200 µM is 46.5%.
Regarding `CC(C)[C@@H]1NC(=O)[C@@H]2CCCN2C1=O` [DKP-2, cyclo (L-Pro-L-Val)], the “Bid protein expression up-regulation” value in series [1] is 1.21 fold. Further, the “survival rate of embryos compared with untreated and DMSO treated embryos” value in the series on zebrafish (ABiC) embryos is recorded as “no significant decrease”. In series [2], the viability at 125 µM came out at 42.3 ± 2.25% and the half-inhibitory concentration (IC50) came out at 118 µM. Further, in the series on HT-29 cells (50 μM), the “EAC Q3 early apoptotic cells, fold change” value is given as 3.0 fold; the “LA/NC Q2 late apoptotic or/and necrotic cells, fold change” value turned out to be 2.5 fold; the “Q1 + Q2 total dead cells, fold change” value was determined as 1.7 fold; the “Q1 dead cells, fold change” value came to 1.5 fold. Moreover, in the series on HT-29 cells (50 μM), the “Q2 + Q3 total apoptotic cells, fold change” value was 2.7 fold and the viability at 50 µM stood at 79.3%. In addition, in the series on HT-29 cells (100 μM), the “EAC Q3 early apoptotic cells, fold change” value is on record as 4.5 fold; the “LA/NC Q2 late apoptotic or/and necrotic cells, fold change” value came to 3.5 fold; the “Q1 + Q2 total dead cells, fold change” value is 3.1 fold; the “Q1 dead cells, fold change” value stood at 3.0 fold. Moreover, in the series on HT-29 cells (100 μM), the “Q2 + Q3 total apoptotic cells, fold change” value is 3.9 fold and the viability at 100 µM worked out at 64.2%. In addition, in the series with HT-29 cells (200 μM), the “EAC Q3 early apoptotic cells, fold change” value worked out at 10.6 fold; the “LA/NC Q2 late apoptotic or/and necrotic cells, fold change” value amounted to 11.2 fold; the “Q1 + Q2 total dead cells, fold change” value turned out to be 3.5 fold; the “Q1 dead cells, fold change” value stood at 1.2 fold. Also, in the series on HT-29 cells (200 μM), the “Q2 + Q3 total apoptotic cells, fold change” value was 11.0 fold and the viability at 200 µM was found to be 52.5%.

For the origin of these results see article PMC7426938, “Induction of mitochondria-mediated apoptosis and suppression of tumor growth in zebrafish xenograft model by cyclic dipeptides identified from Exiguobacterium acetylicum” (Scientific Reports, 2020).
